Data published in US20230049952A1, “METHODS AND COMPOUNDS FOR RESTORING MUTANT P53 FUNCTION” (PMV Pharmaceuticals, Inc., priority 2020, published 2023).
Read-outs that look alike come from different tables or passages of the source.

Assays:
BSEP = BSEP (Homo sapiens, UniProt O95342); experiment: BSEP inhibition: TCA uptake into BSEP-expressing vesicles; format: in vitro ADME; conditions: 10 μM test article
Protocol: An assay to measure BSEP-mediated TCA uptake into inside-out BSEP-expressing vesicles was used. […] The reaction was initiated by adding 5 mM ATP (adenosine 5′-triphosphate) as the energy source for BSEP. Negative controls were run in parallel, using 5 mM AMP (adenosine 5′-monophosphate) in place of ATP. The reactions were carried out in 96-well plates incubated in a humidified incubator (37° C. 5% CO2) for 30 minutes. After incubation, the vesicle-associated TCA and free TCA were separated by rapid filtration through a glass-fiber filter plate under vacuum.
All samples were assayed by liquid chromatography-tandem mass spectrometry (LC-MS/MS) using electrospray ionization. Liquid Chromatography was performed using a Thermo BDS Hypersil C18 30×2.1 mm, 3 μm, with guard column. […] The Aqueous Reservoir (A) was 90% water, 10% buffer. The Organic Reservoir (B) was 90% acetonitrile, 10% buffer. The Flow Rate was 700 μL/minute. The Total Run Time for the liquid chromatography was 2.5 minutes. The Autosampler was 20 μL injection volume. The Autosampler Wash was water/methanol/2-propanol: 1/1/1; with 0.2% formic acid. Mass Spectrometry was performed on the PE SCIEX API 4000 instrument. The interface was Turbo Ionspray. The mode was Multiple reaction monitoring. The method was performed over 2.5 minute duration.

[1] = for Plasma Conc. / Tumor Conc.: MT373 tumor-bearing mice
MT373 tumors = format: in vivo; conditions: 75 and 150 mg/kg BID×1 PO
Description: Randomization and Study Setup: Implanted animals were monitored for palpable tumors. Eighteen days post implant the animals with palpable tumors had their tumor sizes determined via digital caliper. Mice were selected and randomized into three treatment groups according to tumor size. Average tumor volume (mm^3) and body weight (g) are described in TABLE 17. Treatment began on the eighteenth day post-implant to facilitate twice daily dosing.
Measurements and Calculation of Tumor Volume: Tumor volume was calculated using the following equation: (longest diameter×shortest diameter^2)/2. Individual tumor volumes and body weight measurements were taken at the final timepoint. The calculation for percent tumor growth inhibition (TGI) is as follows: [1−((Tt−T0/Ct−C0))]×100, where Ct is the mean tumor volume of the vehicle control group at time t, C0 is the mean tumor volume of the vehicle control group at time 0, and T is the mean tumor volume of the treatment group. Tumor regression was determined with the equation [(T0−Tt)/T0]×100 using the same definitions.

[2] = test system: p53 target genes in MT373 tumors; experiment: MT373 syngeneic sarcoma model: p21, MDM2, GDF15 (MIC-1) mRNA RT-qPCR in tumors; format: in vivo, mouse; conditions: for MDM2 mRNA, Fold Change over Vehicle Control / MIC-1 mRNA, Fold Change over Vehicle Control / p21 mRNA, Fold Change over Vehicle Control: MT373 tumors
Protocol: Purification of RNA: Frozen tumor samples with the required weight were lysed in Buffer RLT with 10 μL/mL of β-mercaptoethanol using a TissueLyser LT. Total RNA was further purified from the lysate using QIAcube with DNase digestion, and RNA concentration was measured with a NanoDrop 2000 Spectrophotometer.
p21, MDM2, GDF15, and GAPDH Gene Expression: Individual gene expression was analyzed by one-step TaqMan-based real-time RT-qPCR. Purified total RNA was diluted to 2.5 ng/μL in DNase- and RNase-free water, and 10 ng was used for each 20 μL RT-qPCR assay using a LightCycler 96. A QuantiTect Probe RT-PCR Kit was used along with a specific primer/probe set as indicated. LAM-MGB labels were used for genes GAPDH, CDKN1a, MDM2, GDL15, and TRP53. The expression of the reference gene (human GAPDH and/or mouse GAPDH as indicated) in the ratio to the vehicle control was calculated using the ΔCt method with normalization to the total RNA input. The expression of a gene of interest relative to the reference gene was calculated using the ΔCt method, and the expression of a gene of interest relative to the reference gene in the ratio to the vehicle control was calculated using the ΔΔCt method.

[3] = 1 μM TCA, BSEP vesicles, 30 minutes

BSEP, sequence (O95342 whole entry, species assumed): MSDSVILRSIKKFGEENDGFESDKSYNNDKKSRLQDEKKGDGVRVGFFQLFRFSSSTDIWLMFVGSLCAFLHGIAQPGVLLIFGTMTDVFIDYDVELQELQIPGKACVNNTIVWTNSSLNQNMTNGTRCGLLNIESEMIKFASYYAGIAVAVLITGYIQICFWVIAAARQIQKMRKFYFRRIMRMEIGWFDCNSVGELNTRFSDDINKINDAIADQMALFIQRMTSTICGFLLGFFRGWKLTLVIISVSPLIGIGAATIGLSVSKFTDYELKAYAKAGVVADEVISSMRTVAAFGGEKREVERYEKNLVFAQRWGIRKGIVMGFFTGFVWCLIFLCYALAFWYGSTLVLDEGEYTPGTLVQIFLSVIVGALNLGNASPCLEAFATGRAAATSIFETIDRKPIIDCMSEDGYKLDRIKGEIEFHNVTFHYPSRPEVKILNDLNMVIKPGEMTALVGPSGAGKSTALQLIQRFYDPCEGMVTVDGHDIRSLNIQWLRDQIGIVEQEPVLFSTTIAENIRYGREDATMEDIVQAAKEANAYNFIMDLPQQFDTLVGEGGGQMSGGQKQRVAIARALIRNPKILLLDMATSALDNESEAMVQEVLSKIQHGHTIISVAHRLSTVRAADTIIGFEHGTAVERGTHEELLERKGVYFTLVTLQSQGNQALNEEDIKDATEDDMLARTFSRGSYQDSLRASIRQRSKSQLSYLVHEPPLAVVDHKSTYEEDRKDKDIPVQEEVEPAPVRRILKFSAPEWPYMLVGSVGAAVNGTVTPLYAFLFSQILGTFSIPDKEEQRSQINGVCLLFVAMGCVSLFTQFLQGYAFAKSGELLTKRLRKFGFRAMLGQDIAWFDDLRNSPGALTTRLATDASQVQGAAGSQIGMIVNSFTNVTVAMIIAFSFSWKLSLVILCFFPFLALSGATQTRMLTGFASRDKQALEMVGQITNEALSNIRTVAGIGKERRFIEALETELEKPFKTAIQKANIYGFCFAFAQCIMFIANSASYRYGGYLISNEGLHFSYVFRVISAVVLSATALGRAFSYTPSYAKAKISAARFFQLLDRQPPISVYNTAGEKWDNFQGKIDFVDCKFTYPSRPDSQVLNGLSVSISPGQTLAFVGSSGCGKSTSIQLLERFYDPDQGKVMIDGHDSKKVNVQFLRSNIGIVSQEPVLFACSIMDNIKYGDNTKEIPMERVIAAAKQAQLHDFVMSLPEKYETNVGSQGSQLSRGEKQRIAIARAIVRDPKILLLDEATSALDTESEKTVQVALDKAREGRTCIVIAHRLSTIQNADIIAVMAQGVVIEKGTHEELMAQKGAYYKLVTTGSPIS

SMILES: CCn1c(C#CCNc2ccccc2)cc2cc(CNC3CCN(C)CC3)ccc21 [Compound 1, 1-Anilino-3-{1-ethyl-5-[(1-methyl-4-piperidylamino)methyl]-1H-indol-2-yl}-2-propyne]
- BSEP Inhibition Potential Classification (BSEP): Negative (Percent inhibition <50%: Negative)
- TCA Concentration, Cofactor AMP, AVG (BSEP; 1 μM TCA, AMP negative control): 1.97 nM
- TCA Concentration, Cofactor AMP, R1 (BSEP; 1 μM TCA, AMP negative control): 1.50 nM
- TCA Concentration, Cofactor ATP, AVG (BSEP; [3]): 85.5 nM
- TCA Concentration, Cofactor ATP, R1 (BSEP; [3]): 87. nM
- BSEP Inhibition Classification (BSEP; TCA 1 μM): negative
- Percent Inhibition (BSEP; negative values reported as 0): 0%
- Plasma Conc. ([1]; 75 mg/kg BIDx1 PO, 8 h): 8375 ng/mL
- Tumor Conc. ([1]; 75 mg/kg BIDx1 PO, 8 h): 30853 ng/g
- Plasma Conc. ([1]; 75 mg/kg BIDx1 PO, 24 h): 1843 ng/mL
- Tumor Conc. ([1]; 75 mg/kg BIDx1 PO, 24 h): 12035 ng/g
- Plasma Conc. ([1]; 75 mg/kg BIDx1 PO, 48 h): 40 ng/mL
- Tumor Conc. ([1]; 75 mg/kg BIDx1 PO, 48 h): 318 ng/g
- Plasma Conc. ([1]; 75 mg/kg BIDx1 PO, 72 h): 0 ng/mL
- Tumor Conc. ([1]; 75 mg/kg BIDx1 PO, 72 h): 97 ng/g
- Plasma Conc. ([1]; 75 mg/kg BIDx1 PO, 98 h): 0 ng/mL
- Tumor Conc. ([1]; 75 mg/kg BIDx1 PO, 98 h): 0 ng/g
- plasma concentration ([1]; 75 mg/kg BID×1 PO, 8 h (Cmax)): 8375 ng/mL
- plasma concentration ([1]; 75 mg/kg BID×1 PO, 24 h): 1843 ng/mL
- Plasma Conc. ([1]; 150 mg/kg BIDx1 PO, 8 h): 11435 ng/mL
- Tumor Conc. ([1]; 150 mg/kg BIDx1 PO, 8 h): 57645 ng/g
- Plasma Conc. ([1]; 150 mg/kg BIDx1 PO, 24 h): 5986 ng/mL
- Tumor Conc. ([1]; 150 mg/kg BIDx1 PO, 24 h): 67778 ng/g
- Plasma Conc. ([1]; 150 mg/kg BIDx1 PO, 48 h): 268 ng/mL
- Tumor Conc. ([1]; 150 mg/kg BIDx1 PO, 48 h): 2436 ng/g
- Plasma Conc. ([1]; 150 mg/kg BIDx1 PO, 72 h): 7 ng/mL
- Tumor Conc. ([1]; 150 mg/kg BIDx1 PO, 72 h): 59 ng/g
- Plasma Conc. ([1]; 150 mg/kg BIDx1 PO, 98 h): 3 ng/mL
- Tumor Conc. ([1]; 150 mg/kg BIDx1 PO, 98 h): 23 ng/g
- plasma concentration ([1]; 150 mg/kg BID×1 PO, 8 h (Cmax)): 11435 ng/mL
- plasma concentration ([1]; 150 mg/kg BID×1 PO, 24 h): 5986 ng/mL
- tolerability (MT373 tumors): well tolerated
- MDM2 mRNA, Fold Change over Vehicle Control ([2]; 75 mg/kg BIDx1 PO, 8 h): 6.16 fold
- MIC-1 mRNA, Fold Change over Vehicle Control ([2]; 75 mg/kg BIDx1 PO, 8 h): 1.74 fold
- p21 mRNA, Fold Change over Vehicle Control ([2]; 75 mg/kg BIDx1 PO, 8 h): 5.43 fold
- MDM2 mRNA, Fold Change over Vehicle Control ([2]; 75 mg/kg BIDx1 PO, 24 h): 2.44 fold
- MIC-1 mRNA, Fold Change over Vehicle Control ([2]; 75 mg/kg BIDx1 PO, 24 h): 1.14 fold
- p21 mRNA, Fold Change over Vehicle Control ([2]; 75 mg/kg BIDx1 PO, 24 h): 4.04 fold
- MDM2 mRNA, Fold Change over Vehicle Control ([2]; 75 mg/kg BIDx1 PO, 48 h): 1.12 fold
- MIC-1 mRNA, Fold Change over Vehicle Control ([2]; 75 mg/kg BIDx1 PO, 48 h): 0.85 fold
- p21 mRNA, Fold Change over Vehicle Control ([2]; 75 mg/kg BIDx1 PO, 48 h): 1.43 fold
- MDM2 mRNA, Fold Change over Vehicle Control ([2]; 75 mg/kg BIDx1 PO, 72 h): 1.08 fold
- MIC-1 mRNA, Fold Change over Vehicle Control ([2]; 75 mg/kg BIDx1 PO, 72 h): 0.65 fold
- p21 mRNA, Fold Change over Vehicle Control ([2]; 75 mg/kg BIDx1 PO, 72 h): 1.18 fold
- MDM2 mRNA, Fold Change over Vehicle Control ([2]; 75 mg/kg BIDx1 PO, 98 h): 1.11 fold
- MIC-1 mRNA, Fold Change over Vehicle Control ([2]; 75 mg/kg BIDx1 PO, 98 h): 1.05 fold
- p21 mRNA, Fold Change over Vehicle Control ([2]; 75 mg/kg BIDx1 PO): 0.99 fold
- MDM2 mRNA, Fold Change over Vehicle Control ([2]; 75 mg/kg BIDx1 PO, […]): 0.85 fold
- MIC-1 mRNA, Fold Change over Vehicle Control ([2]; 75 mg/kg BIDx1 PO, […]): 0.88 fold
- p21 mRNA, Fold Change over Vehicle Control ([2]; 75 mg/kg BIDx1 PO, […]): 0.98 fold
- MDM2 mRNA increase ([2]; 75 mg/kg BID×1, 8 h): 6.2 fold
- p21 mRNA increase ([2]; 75 mg/kg BID×1, 8 h): 5.4 fold
- MDM2 mRNA increase ([2]; 75 mg/kg BID×1, 24 h): 2.4 fold
- p21 mRNA increase ([2]; 75 mg/kg BID×1, 24 h): 4.0 fold
- MDM2 mRNA, Fold Change over Vehicle Control ([2]; 150 mg/kg BIDx1 PO, 8 h): 8.70 fold
- MIC-1 mRNA, Fold Change over Vehicle Control ([2]; 150 mg/kg BIDx1 PO, 8 h): 3.07 fold
- p21 mRNA, Fold Change over Vehicle Control ([2]; 150 mg/kg BIDx1 PO, 8 h): 6.73 fold
- MDM2 mRNA, Fold Change over Vehicle Control ([2]; 150 mg/kg BIDx1 PO, 24 h): 6.88 fold
- MIC-1 mRNA, Fold Change over Vehicle Control ([2]; 150 mg/kg BIDx1 PO, 24 h): 2.29 fold
- p21 mRNA, Fold Change over Vehicle Control ([2]; 150 mg/kg BIDx1 PO, 24 h): 9.61 fold
- MDM2 mRNA, Fold Change over Vehicle Control ([2]; 150 mg/kg BIDx1 PO, 48 h): 1.43 fold
- MIC-1 mRNA, Fold Change over Vehicle Control ([2]; 150 mg/kg BIDx1 PO, 48 h): 1.14 fold
- p21 mRNA, Fold Change over Vehicle Control ([2]; 150 mg/kg BIDx1 PO, 48 h): 1.87 fold
- MDM2 mRNA, Fold Change over Vehicle Control ([2]; 150 mg/kg BIDx1 PO, 72 h): 1.33 fold
- MIC-1 mRNA, Fold Change over Vehicle Control ([2]; 150 mg/kg BIDx1 PO, 72 h): 0.93 fold
- p21 mRNA, Fold Change over Vehicle Control ([2]; 150 mg/kg BIDx1 PO, 72 h): 1.33 fold
- MDM2 mRNA, Fold Change over Vehicle Control ([2]; 150 mg/kg BIDx1 PO, 98 h): 1.12 fold
- MIC-1 mRNA, Fold Change over Vehicle Control ([2]; 150 mg/kg BIDx1 PO, 98 h): 0.53 fold
- p21 mRNA, Fold Change over Vehicle Control ([2]; 150 mg/kg BIDx1 PO): 1.01 fold
- MDM2 mRNA, Fold Change over Vehicle Control ([2]; 150 mg/kg BIDx1 PO, […]): 1.16 fold
- MIC-1 mRNA, Fold Change over Vehicle Control ([2]; 150 mg/kg BIDx1 PO, […]): 1.00 fold
- p21 mRNA, Fold Change over Vehicle Control ([2]; 150 mg/kg BIDx1 PO, […]): 0.85 fold
- MDM2 mRNA increase ([2]; 150 mg/kg BID×1, 8 h): 8.7 fold
- MIC-1 mRNA increase ([2]; 150 mg/kg BID×1, 8 h): 3.07 fold
- p21 mRNA increase ([2]; 150 mg/kg BID×1, 8 h): 6.7 fold
- MDM2 mRNA increase ([2]; 150 mg/kg BID×1, 24 h): 6.9 fold
- MIC-1 mRNA increase ([2]; 150 mg/kg BID×1, 24 h): 2.29 fold
- p21 mRNA increase ([2]; 150 mg/kg BID×1, 24 h): 9.6 fold
